Data on 21 compounds can be found in patent US20260001893A1, “SMALL MOLECULE MODULATORS OF STAT6” (Gilead Sciences, Inc., priority 2024, published 2026).

In this assay the test system is Eotaxin-3 (CCL26) release in human whole blood stimulated with IL-4. In words: Human whole blood eotaxin-3 assay (IL-4 stimulated eotaxin-3 release). The settings on record: Homo sapiens, 48 h, human whole blood stimulated with recombinant human IL-4, 48 h, geometric mean; for EC50: inhibition of eotaxin-3 release, given for test compounds with >80% Emax; for Emax: given for test compounds with <80% Emax. It is filed as cell-based. Here is the method:
Human Whole Blood Eotaxin-3 Assay
This was a human whole blood assay using recombinant human Interleukin 4 to stimulate the blood and measuring the ability of the test compounds to inhibit eotaxin-3 release. The biological activities of the test compounds have been tested in human whole blood stimulated with IL-4 measuring Eotaxin-3 release. The test compounds were added to 384 well clear flat-bottom plate in a 4-fold serial dilution in triplicates using a liquid handler. Human whole blood stabilized in lithium-heparin tubes was added in a volume of 65 μL per well, resulting in a final DMSO concentration of 0.5%. The plate is incubated for 2 h at 37° C. under 5% CO2/95% air. Subsequently, 5 μL of recombinant human IL-4 (R&D Systems, cat #204-ILB) was added to the wells to a final concentration of […]. The plate was incubated for 48 h at 37° C. under 5% CO2/95% air. The plate was spun down for 10 minutes at 500×g and 20 μL supernatant was harvested and transferred to a 384 well v-bottom plate using a liquid handler and stored at −20° C. until further analysis. 10 μL supernatant was used to measure the level of Eotaxin-3 (CCL26) using Human Eotaxin-3 MSD kit from Mesocsale (Cat #K251UEK-4). The assay was performed according to the manufacture instructions.
The data from the human whole blood eotaxin-3 assay is shown below for Examples 1ab3, 1ab6, 1d23, and 1d4 (where the effect in % is plotted against the test concentration in M on a log-scale).

Structures are written as SMILES.

On to `[2H]C([2H])([2H])N(C(=O)c1ccc(C2CCN([C@@H](C)c3cc4c(-n5ccc(N)cc5=O)ccnc4n3C)CC2)cc1)C([2H])([2H])[2H]` [Example 1af65, (S)-4-(1-(1-(4-(4-amino-2-oxopyridin-1 (2H)-yl)-1-methyl-1H-pyrrolo[2,3-b]pyridin-2-yl)ethyl)piperidin-4-yl)-N,N-bis(methyl-d3)benzamide], for which the EC50 (commonly the concentration at which the effect is half-maximal) was 19.6 nM.
As for `CNc1ccn(-c2ccnc3c2cc([C@H](C)N2CC=C(c4c(C)cc(C(=O)N(C)C)cc4F)CC2)n3C)c(=O)c1` [Example 1af82, (S)-3-fluoro-N,N,5-trimethyl-4-(1-(1-(1-methyl-4-(4-(methylamino)-2-oxopyridin-1 (2H)-yl)-1H-pyrrolo[2,3-b]pyridin-2-yl)ethyl)-1,2,3,6-tetrahydropyridin-4-yl)benzamide], the EC50 is 2.61 nM.
Regarding `[2H]C([2H])([2H])N(C(=O)c1cc(C)c(C2=CCN([C@@H](C)c3cc4c(-n5ccc(NC)cc5=O)ccnc4n3C)CC2)c(F)c1)C([2H])([2H])[2H]` [Example 1af83, (S)-3-fluoro-5-methyl-N,N-bis(methyl-d3)-4-(1-(1-(1-methyl-4-(4-(methylamino)-2-oxopyridin-1 (2H)-yl)-1H-pyrrolo[2,3-b]pyridin-2-yl)ethyl)-1,2,3,6-tetrahydropyridin-4-yl)benzamide], the EC50 was found to be 2.67 nM.
Regarding `[2H]C([2H])([2H])N(C(=O)c1ccc(C2CCN(Cc3cc4c(-n5ccc(N)c(C)c5=O)ccnc4n3C)CC2)cc1)C([2H])([2H])[2H]` [Example 1d22, 4-[1-[[4-(4-Amino-3-methyl-2-oxo-1-pyridyl)-1-methyl-pyrrolo[2,3-b]pyridin-2-yl]methyl]-4-piperidyl]-N,N-bis(trideuteriomethyl)benzamide], the Emax (commonly the greatest response seen or fitted, relative to the assay's reference) lay within 70 to 80%.
As to `[2H]C([2H])([2H])N(C(=O)c1ccc(C2CCN(Cc3cc4c(-n5ccc6c(c5=O)CCN6)ccnc4n3C)CC2)cc1)C([2H])([2H])[2H]` [Example 1d24, 4-[1-[[1-Methyl-4-(4-oxo-2,3-dihydro-1H-pyrrolo[3,2-c]pyridin-5-yl)pyrrolo[2,3-b]pyridin-2-yl]methyl]-4-piperidyl]-N,N-bis(trideuteriomethyl)benzamide], the Emax fell in the range of 70 to 80%.
Consider `CNc1ccn(-c2ccnc3c2cc(CN2CCC(c4ccc(C(=O)N(C)C)cc4Cl)CC2)n3C)c(=O)c1` [Example 1d37, 3-Chloro-N,N-dimethyl-4-[1-[[1-methyl-4-[4-(methylamino)-2-oxo-1-pyridyl]pyrrolo[2,3-b]pyridin-2-yl]methyl]-4-piperidyl]benzamide], for which the EC50 worked out at 148 nM.
As to `CN(C)C(=O)c1ccc(C2CCN(Cc3cc4c(-n5ccc(N)c(C(=O)CCCO)c5=O)ccnc4n3C)CC2)cc1` [Example 1d44, 4-[1-[[4-[4-Amino-3-(4-hydroxybutanoyl)-2-oxo-1-pyridyl]-1-methyl-pyrrolo[2,3-b]pyridin-2-yl]methyl]-4-piperidyl]-N,N-dimethyl-benzamide], the EC50 stood at 307 nM.
`CNc1ccn(-c2ccnc3c2cc(CN2CC=C(c4c(C)cc(C(=O)N(C)C)cc4F)CC2)n3C)c(=O)c1` [Example 1m56, 3-Fluoro-N,N,5-trimethyl-4-(1-((1-methyl-4-(4-(methylamino)-2-oxopyridin-1 (2H)-yl)-1H-pyrrolo[2,3-b]pyridin-2-yl)methyl)-1,2,3,6-tetrahydropyridin-4-yl)benzamide]: the EC50 was 3.64 nM.
For the compound `CNc1ccn(-c2ccnc3c2cc(CN2CC=C(c4c(C)cc(C(=O)N(C)C)cc4Cl)CC2)n3C)c(=O)c1` [Example 1m57, 3-Chloro-N,N,5-trimethyl-4-(1-((1-methyl-4-(4-(methylamino)-2-oxopyridin-1 (2H)-yl)-1H-pyrrolo[2,3-b]pyridin-2-yl)methyl)-1,2,3,6-tetrahydropyridin-4-yl)benzamide], the concentration giving a half-maximal response (EC50) was 27 nM.
Take `CNc1ccn(-c2ccnc3c2cc(CN2CC=C(c4ncc(C(=O)N(C)C)cc4C(F)(F)F)CC2)n3C)c(=O)c1` [Example 1m69, N,N-Dimethyl-6-[1-[[1-methyl-4-[4-(methylamino)-2-oxo-1-pyridyl]pyrrolo[2,3-b]pyridin-2-yl]methyl]-3,6-dihydro-2H-pyridin-4-yl]-5-(trifluoromethyl)pyridine-3-carboxamide]: the EC50 is 319 nM.
For the compound `CN(C)C(=O)c1ccc(C2=CCN(Cc3cc4c(-n5ccc6c(c5=O)CCN6)ccnc4n3C)CC2)cn1` [Example 1m70, N,N-dimethyl-1′-((1-methyl-4-(4-oxo-1,2,3,4-tetrahydro-5H-pyrrolo[3,2-c]pyridin-5-yl)-1H-pyrrolo[2,3-b]pyridin-2-yl)methyl)-1′, 2′, 3′, 6′-tetrahydro-[3,4′-bipyridine]-6-carboxamide], the Emax is 20 to 30%.
On to `[2H]C([2H])([2H])N(C(=O)c1ccc(C2CCN([C@@H](C)c3cc4c(-n5ccc(NC)cc5=O)ccnc4n3C)CC2)cc1)C([2H])([2H])[2H]` [Example 1m74, (S)—N,N-bis(methyl-d3)-4-(1-(1-(1-methyl-4-(4-(methylamino)-2-oxopyridin-1 (2H)-yl)-1H-pyrrolo[2,3-b]pyridin-2-yl)ethyl)piperidin-4-yl)benzamide], for which the EC50 turned out to be 12.9 nM.
With `CNC(=O)c1cc(C)c(C2=CCN(Cc3cc4c(-n5ccc(NC)cc5=O)ccnc4n3C)CC2)c(F)c1` [Example 1m75, 3-fluoro-N,5-dimethyl-4-(1-((1-methyl-4-(4-(methylamino)-2-oxopyridin-1 (2H)-yl)-1H-pyrrolo[2,3-b]pyridin-2-yl)methyl)-1,2,3,6-tetrahydropyridin-4-yl)benzamide], the EC50 is 17.8 nM.
Consider `[2H]C([2H])([2H])N(C(=O)c1cc(C)c(C2=CCN(Cc3cc4c(-n5ccc(N)nc5=O)ccnc4n3C)CC2)c(F)c1)C([2H])([2H])[2H]` [Example 1m78, 4-(1-((4-(4-amino-2-oxopyrimidin-1 (2H)-yl)-1-methyl-1H-pyrrolo[2,3-b]pyridin-2-yl)methyl)-1,2,3,6-tetrahydropyridin-4-yl)-3-fluoro-5-methyl-N,N-bis(methyl-d3)benzamide], for which the EC50 turned out to be 26.6 nM.
In the case of `[2H]C([2H])([2H])N(C(=O)c1ccc(C2CCN([C@@H](C)c3cc4c(-n5cc(F)c(N)nc5=O)ccnc4n3C)CC2)cc1)C([2H])([2H])[2H]` [Example 1m80, (S)-4-(1-(1-(4-(4-amino-5-fluoro-2-oxopyrimidin-1 (2H)-yl)-1-methyl-1H-pyrrolo[2,3-b]pyridin-2-yl)ethyl)piperidin-4-yl)-N,N-bis(methyl-d3)benzamide], the concentration giving a half-maximal response (EC50) amounted to 133 nM.
On to `Cc1cc(C(=O)N(C)C)nnc1C1=CCN(Cc2cc3c(-n4ccc5c(c4=O)CCN5)ccnc3n2C)CC1` [Example 1m81, N,N,5-trimethyl-6-(1-((1-methyl-4-(4-oxo-1,2,3,4-tetrahydro-5H-pyrrolo[3,2-c]pyridin-5-yl)-1H-pyrrolo[2,3-b]pyridin-2-yl)methyl)-1,2,3,6-tetrahydropyridin-4-yl)pyridazine-3-carboxamide], for which the Emax was 30 to 40%.
Turning to `C[C@@H](c1cc2c(-n3ccc4c(c3=O)CCN4)ccnc2n1C)N1CCC(c2ccc(C(=O)N(C)C)cc2)CC1` [Example 1m82, (S)—N,N-dimethyl-4-(1-(1-(1-methyl-4-(4-oxo-1,2,3,4-tetrahydro-5H-pyrrolo[3,2-c]pyridin-5-yl)-1H-pyrrolo[2,3-b]pyridin-2-yl)ethyl)piperidin-4-yl)benzamide], the EC50 was 18.4 nM.
Consider `CN(C)C(=O)c1ccc(C2=CCN(Cc3cc4c(-n5ccc6c(c5=O)CCN6)ccnc4n3C)CC2)cc1F` [Example 1m83, 2-fluoro-N,N-dimethyl-4-(1-((1-methyl-4-(4-oxo-1,2,3,4-tetrahydro-5H-pyrrolo[3,2-c]pyridin-5-yl)-1H-pyrrolo[2,3-b]pyridin-2-yl)methyl)-1,2,3,6-tetrahydropyridin-4-yl)benzamide], for which the Emax was 30 to 40%.
`Cc1cc(C(=O)N(C)C)ccc1C1=CCN([C@@H](C)c2cc3c(-n4ccc(N)c(F)c4=O)ccnc3n2C)CC1` [Example 1m84, (S)-4-(1-(1-(4-(4-amino-3-fluoro-2-oxopyridin-1 (2H)-yl)-1-methyl-1H-pyrrolo[2,3-b]pyridin-2-yl)ethyl)-1,2,3,6-tetrahydropyridin-4-yl)-N,N,3-trimethylbenzamide]: the EC50 amounted to 3.69 nM.
Turning to `CNc1ccn(-c2ccnc3[nH]c(C(C)N4CC=C(c5c(C)cc(C(=O)N(C)C)cc5F)CC4)cc23)c(=O)c1` (stereo not drawn) [Example 1m85, 3-fluoro-N,N,5-trimethyl-4-(1-(1-(4-(4-(methylamino)-2-oxopyridin-1 (2H)-yl)-1H-pyrrolo[2,3-b]pyridin-2-yl)ethyl)-1,2,3,6-tetrahydropyridin-4-yl)benzamide], the EC50 is 128 nM.
Turning to `Cc1cc(C(=O)N(C)C)ccc1C1=CCN([C@H](C)c2cc3c(-n4ccc(N)c(F)c4=O)ccnc3n2C)CC1` [Example 1m86, (R)-4-(1-(1-(4-(4-amino-3-fluoro-2-oxopyridin-1 (2H)-yl)-1-methyl-1H-pyrrolo[2,3-b]pyridin-2-yl)ethyl)-1,2,3,6-tetrahydropyridin-4-yl)-N,N,3-trimethylbenzamide], the EC50 came out at 672 nM.
